PMC6680840 (Molecules, 2019)
Entries after “also recorded” stand apart in the source; their conditions may differ.

Columns and labels:
[1] = tested on: SH-SY5Y neuroblastoma cells; experiment: Cell viability (cytotoxicity) MTT assay; assay type: cell-based; conditions: tested concentrations up to 200 μM
Procedure: (§1) The MTT method was used to test the cytotoxicity and neuroprotective activity evaluation of compounds. The detailed procedure was included in Supplementary Materials. […]
42 and ThT; in the presence of Aβ1–42 and THT but no inhibitors; and the blanks […]
SH-SY5Y cells were inoculated into 96-well plates, and each well was seeded with […]. After incubation for 24 h, the medium was removed and replaced with 100 µL medium containing the different concentrations of tested compounds for 24 h, and then incubated with 10 µL of 3-(4,5-dimethylthiazol-2-yl)-2,5-diphenyltetrazolium bromide (MTT) at 37 °C for 3 h. In this step, 100 µL DMSO was added to dissolve the […]
(1 picture or pasted object on this page, not shown here) […]
(§2) formazan crystals. The formazan dye product was measured by the absorbance at 490 nm on a Tecan Spark multimode microplate reader (Tecan, Switzerland).
(§3) Neuroprotective activity assay
SH-SY5Y cells were maintained at 37 °C in a humidified atmosphere containing 5% CO2. Cells were seeded into multi-well plates at a density of 2~2.5 × 10^5 cells/mL in DMEM medium, supplemented with 10% heat-inactivated bovine calf serum (Gibco, South America Origin). Experiments were carried out in 24 h after cells were seeded. […]
Th e compounds were first dissolved with DMSO and then diluted with DMEM medium. […]

Aβ1-42 aggregation = target: T1, Aβ1-42 aggregation (Homo sapiens, UniProt P05067); experiment: Inhibition of Aβ1-42 aggregation, thioflavin T (ThT) method; assay type: biochemical; conditions: for inhibitory activity against Aβ1-42 aggregation (in words): 1 to 10 μM; for inhibition ratio towards Aβ1-42 aggregation: at 10 μM
T1 construct: pre-treated Aβ1–42 (GL Biochem Ltd); purchased GL Biochem Ltd, shanghai, China
Procedure: The ThT-based fluorometric assay [54] was performed for the determination of compounds’ anti-Aβ1–42 aggregation potency.
Determination of the inhibitory potency on Aβ1–42 aggregation
1,1,1,3,3,3-hexafluoro-2-propanol (HFIP) pre-treated Aβ1–42 (GL Biochem Ltd, shanghai, China) was dissolved in DMSO to make a 200 μM stock solution. The stock solution was centrifuged at the speed of 13,500 rpm for 10 min. The above supernatant was used for further experiments. The compounds for testing were dissolved in DMSO at concentrations of 0.8 mM. A screening assay for the compounds to inhibit Aβ aggregation was performed by measuring ThT fluorescence emission.
μL) and 2 μL of 200 μM Aβ1–42 were added into 76 μL of phosphate-bufered saline (PBS at pH 7.4) in a 96-well microtiter plate. After incubation for 24 h at room temperature, 80 μL of 5 μM ThT solution (in 50 mM glycine-NaOH at pH 8.5) was added to the reaction solution. Fluorescence emission was measured at 490 nm with an excitation wavelength of 450 nm on a Tecan Spark multimode microplate reader. The fluorescence intensities were compared and the % inhibition was calculated by the following equation: 100 − [(Fi − Fb)/(Fo − Fb) × 100] where Fi, Fo and Fb are the fluorescence intensities obtained for Aβ aggregation in the presence of inhibitors, A β1– 42 and ThT; in the presence of Aβ1–42 and THT but no inhibitors; and the blanks

[2] = tested on: Aβ1-42-induced toxicity in SH-SY5Y cells; experiment: Protective activity against Aβ1-42-induced toxicity, MTT method; assay type: cell-based; conditions: Homo sapiens, SH-SY5Y, 24 h, read-out: cell viability of Aβ1-42-treated SH-SY5Y cells
Procedure: Based on this observation, compound 23 might be a more promising protective agent against Aβ1-42-induced toxicity on the SH-SY5Y cell model.
as §1, §2, §3
SH-SY5Y cells were maintained at 37 °C in a humidified atmosphere containing 5% CO2. Cells were seeded into multi-well plates at a density of 2~2.5 × 10^5 cells/mL in DMEM medium, supplemented with 10% heat-inactivated bovine calf serum (Gibco, South America Origin). Experiments were carried out in 24 h after cells were seeded.
Aβ1–42 were stored at 4 °C until 0.1 mM stock solutions were prepared in phosphate bufer saline (PBS) on the day of application to cultures. Th e compounds were first dissolved with DMSO and then diluted with DMEM medium. After pretreatment with the compounds for 2 h, Aβ1–42 were added to SH-SY5Y cell cultures in 24 h. Assays for cell viability were performed in 24 h after cultured in fresh medium .

[3] = target: T2, BChE (EC 3.1.1.8, from human serum) (Homo sapiens, UniProt P06276); experiment: biochemical; conditions: for BChE IR (%) inhibition ratio: at 50 μM; for improved BChE inhibitory activity, folds compared with 1: compared with hit 1; for IC50: mean ± SD of three separate experiments
T2 construct: BChE (EC 3.1.1.8, from human serum); purchased Sigma-Aldrich (St. Louis, MO, USA); host or cells: human serum
Procedure: (§4) BChE (EC 3.1.1.8, from human serum), AChE (EC […]), butyrylthiocholine (BUC) iodide, and acetylthiocholine (ATC) iodide were purchased from Sigma-Aldrich (St. Louis, MO, USA). Enzyme was dissolved and pre-prepared at 2.0 U/mL. 10 μL of enzyme, 20 μL of 0.01 M 5,5′-dithiobis(2-nitrobenzoic acid), 10 μL of tested compound, and 40 μL of PBS were pre-incubated together for 5 min. Io initiate the reaction, 20 μL of 0.01 M BUC or ATC was added. The activity was determined by measuring the increase in absorbance at 410 nm at 37 °C in 2 min intervals using Tecan Spark multimode microplate reader (Mannedorf, Switzerland). The percentage of inhibition (I) was calculated according to the formula: I = (Ac − Ai)/Ac × 100%, with Ai and Ac representing the change in the absorbance in the presence of an inhibitor and without an inhibitor, respectively.

[4] = target: T3, AChE (from human erythrocyte) (Homo sapiens, UniProt P22303); experiment: biochemical; conditions: at 50 μM
T3 construct: AChE (EC 3.1.1.8, from human erythrocyte); purchased Sigma-Aldrich (St. Louis, MO, USA); host or cells: human erythrocyte
Procedure: as §4

BChE = target: T4, BChE (Homo sapiens, UniProt P06276); experiment: Kinetic study of BChE inhibition (Lineweaver-Burk); assay type: biochemical
T4 construct: BChE (EC 3.1.1.8, from human serum); purchased Sigma-Aldrich (St. Louis, MO, USA); host or cells: human serum
Procedure: To further understand the action mechanism for BChE inhibition of this series of compounds, the kinetic assay was performed with the optimal compound 23 as a model compound. […]. […] The result was confirmed by the subsequent molecular docking study of 23. […].
Kinetic study of BChE inhibition was performed by using Ellman’s method as described in Section 3.3.
Figure 3 Kinetic study of 23 on BChE inhibition. […];

T1 sequence (P05067 672-713): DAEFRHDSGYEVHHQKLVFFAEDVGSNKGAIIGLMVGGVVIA
T2 sequence (P06276 29-602): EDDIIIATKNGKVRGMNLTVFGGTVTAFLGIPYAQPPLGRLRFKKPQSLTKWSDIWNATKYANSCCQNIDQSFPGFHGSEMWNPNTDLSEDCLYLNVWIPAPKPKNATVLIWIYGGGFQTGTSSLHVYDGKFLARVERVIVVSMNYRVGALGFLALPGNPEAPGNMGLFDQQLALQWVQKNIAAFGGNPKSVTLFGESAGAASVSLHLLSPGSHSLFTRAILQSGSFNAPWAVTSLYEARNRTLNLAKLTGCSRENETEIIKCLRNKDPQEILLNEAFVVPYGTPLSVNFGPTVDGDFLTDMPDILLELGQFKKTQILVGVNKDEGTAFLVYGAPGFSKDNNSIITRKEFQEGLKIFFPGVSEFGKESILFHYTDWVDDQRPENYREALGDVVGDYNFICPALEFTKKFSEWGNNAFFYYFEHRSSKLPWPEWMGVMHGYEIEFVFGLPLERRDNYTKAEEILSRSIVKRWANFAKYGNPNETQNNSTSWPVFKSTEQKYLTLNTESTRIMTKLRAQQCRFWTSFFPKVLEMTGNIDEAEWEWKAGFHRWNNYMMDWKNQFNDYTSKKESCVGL
T4 sequence (P06276 29-602): as above
T3 sequence (P22303 other isoform, or with tags, fused parts or gaps): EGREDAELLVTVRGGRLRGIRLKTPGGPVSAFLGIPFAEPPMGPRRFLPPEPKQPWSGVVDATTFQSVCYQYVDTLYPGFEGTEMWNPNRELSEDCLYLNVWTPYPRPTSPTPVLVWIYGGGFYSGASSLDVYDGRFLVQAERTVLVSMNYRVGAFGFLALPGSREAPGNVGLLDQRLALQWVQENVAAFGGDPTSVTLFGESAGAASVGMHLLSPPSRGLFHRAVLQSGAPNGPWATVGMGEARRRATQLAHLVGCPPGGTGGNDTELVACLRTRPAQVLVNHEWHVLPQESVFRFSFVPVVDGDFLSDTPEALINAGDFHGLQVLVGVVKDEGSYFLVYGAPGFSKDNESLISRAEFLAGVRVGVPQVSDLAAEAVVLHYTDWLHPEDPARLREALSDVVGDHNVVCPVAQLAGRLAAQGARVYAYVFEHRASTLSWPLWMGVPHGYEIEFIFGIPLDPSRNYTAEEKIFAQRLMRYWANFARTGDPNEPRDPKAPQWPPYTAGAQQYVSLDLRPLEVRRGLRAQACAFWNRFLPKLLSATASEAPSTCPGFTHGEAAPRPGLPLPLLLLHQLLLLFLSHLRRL

Compound	cytotoxicity towards SH-SY5Y cells [1]	inhibitory activity against Aβ1-42 aggregation (in words) (Aβ1-42 aggregation)	inhibition ratio towards Aβ1-42 aggregation (Aβ1-42 aggregation) [%]	viability at 5 µM [2] [%]	viability at 10 µM [2] [%]	BChE IR (%) inhibition ratio [3] [%]	improved BChE inhibitory activity, folds compared with 1 [3] [fold]	IC50 [3] [nM]	AChE IR (%) inhibition ratio [4] [%]	Ki (BChE; BChE, read-out: KI value (replot of slope against concentration)) [nM]	type of BChE inhibition (BChE; Lineweaver-Burk plots)	fold increase in BChE inhibitory potency ([3]; compared with 9)	fold increase in BChE inhibitory potency ([3]; compared with 16) [fold]
O=C(c1ccc(CN2CCc3ccccc3C2)cc1)N1CCCC1 [Compound 9, (4-((3,4-dihydroisoquinolin-2(1H)-yl)methyl)phenyl)(pyrrolidin-1-yl)methanone]	did not show obvious cytotoxicity; also recorded: non-toxic	dose-dependent manner	45.5 ± 6.2	84.7 ± 1.77	88.8 ± 0.81	95.1	9	2680 ± 280	29.1				
O=C(Nc1ccccc1Br)c1ccc(CN2CCc3ccccc3C2)cc1 [Compound 23, N-(2-bromophenyl)-4-((3,4-dihydroisoquinolin-2(1H)-yl)methyl)benzamide]	did not show obvious cytotoxicity; also recorded: non-toxic	dose-dependent manner	44.2 ± 3.3	91.1 ± 1.25	98 ± 1.7	97.9	21	830 ± 80	22.7	520	mixed-type inhibitor	about 3 fold	~8
